From patent publication US9944647B2 (Incyte Corporation, priority 2015, dated 2018)

Target: LSD-1 enzyme (Homo sapiens (Human), UniProt O60341)
Assay: LANCE LSD1/KDM1A demethylase assay (LSD1 histone demethylase biochemical assay)
Settings: 1 nM LSD-1 enzyme, 1 hour preincubation at 25° C., Biotin-labeled Histone H3 peptide substrate

| SMILES | IC50 |
| --- | --- |
| CN1CCC[C@@H](COc2nc(-c3ccc(C#N)cc3)c(-c3ccc(CN(C)C(=O)N(C)C)cc3)c3nccn23)C1 [Example 86, N-[4-(7-(4-cyanophenyl)-5-{[(3R)-1-methylpiperidin-3-y1]methoxy}imidazo[1,2-c]pyrimidin-8-yl)benzyl]-N,N′,N′-trimethylurea] | ≤ 50 nM |
| COC(=O)N(C)Cc1ccc(-c2c(-c3ccc(C#N)cc3)nc(OC[C@@H]3CCCN(C)C3)n3ccnc23)cc1 [Example 87, methyl [4-(7-(4-cyanophenyl)-5-{[(3R)-1-methylpiperidin-3-yl]methoxy}imidazo[1,2-c]pyrimidin-8-yl)benzyl]methylcarbamate] | ≤ 50 nM |
| COc1ncc(-c2c(-c3ccc(C#N)cc3)nc(OC[C@@H]3CCCN(C)C3)n3ccnc23)cc1Cl [Example 88, 4-(8-(5-chloro-6-methoxypyridin-3-yl)-5-{[(3R)-1-methylpiperidin-3-yl]methoxy}imidazo[1,2-c]pyrimidin-7-yl)benzonitrile] | ≤ 50 nM |
| Cc1cc(-c2c(-c3ccc(C#N)cc3)nc(N3CCC(N(C)C)CC3)n3ccnc23)cc(F)c1CO [Example 89, 4-{5-[4-(dimethylamino)piperidin-1-yl]-8-[3-fluoro-4-(hydroxymethyl)-5-methylphenyl]imidazo[1,2-c]pyrimidin-7-yl}benzonitrile] | ≤ 50 nM |
| CN(C)C1CCN(c2nc(-c3ccc(C#N)cc3)c(-c3cc(F)c(CO)c(F)c3)c3nccn23)CC1 [Example 90, 4-{8-[3,5-difluoro-4-(hydroxymethyl)phenyl]-5-[4-(dimethylamino)piperidin-1-yl]imidazo[1,2-c]pyrimidin-7-yl}benzonitrile] | ≤ 50 nM |
| Cc1cc(-c2c(-c3ccc(C#N)cc3)nc(N3CCC(N(C)C)CC3)n3ccnc23)ccc1CO [Example 91, 4-{5-[4-(dimethylamino)piperidin-1-yl]-8-[4-(hydroxymethyl)-3-methylphenyl]imidazo[1,2-c]pyrimidin-7-yl}benzonitrile] | ≤ 50 nM |
| Cc1ncc(-c2c(-c3ccc(C#N)cc3)nc(OC[C@@H]3CCCN(C)C3)n3ccnc23)cc1Cl [Example 92, 4-(8-(5-chloro-6-methylpyridin-3-yl)-5-{[(3R)-1-methylpiperidin-3-yl]methoxy}imidazo[1,2-c]pyrimidin-7-yl)benzonitrile] | ≤ 50 nM |
| Cc1ccc(-c2c(-c3ccc(C#N)cc3)nc(OC[C@@H]3CCCN(C)C3)n3ccnc23)cc1C(C)O (stereo partly drawn) [Example 93, 4-(8-[3-(1-hydroxyethyl)-4-methylphenyl]-5-{[(3R)-1-methylpiperidin-3-yl]methoxy}imidazo[1,2-c]pyrimidin-7-yl)benzonitrile] | ≤ 50 nM |
| COCc1ccc(-c2c(-c3ccc(C#N)cc3)nc(OC[C@@H]3CCCN(C)C3)n3ccnc23)cc1 [Example 94, 4-(8-[4-(methoxymethyl)phenyl]-5-{[(3R)-1-methylpiperidin-3-yl]methoxy}imidazo[1,2-c]pyrimidin-7-yl)benzonitrile] | ≤ 50 nM |
| CN1CCC[C@@H](COc2nc(-c3ccc(C#N)cc3)c(-c3ccc(CN4CCOCC4)cc3F)c3nccn23)C1 [Example 95, 4-(8-[2-fluoro-4-(morpholin-4-ylmethyl)phenyl]-5-{[(3R)-1-methylpiperidin-3-yl]methoxy}imidazo[1,2-c]pyrimidin-7-yl)benzonitrile] | ≤ 50 nM |
| Cc1ccc(-c2c(-c3ccc(C#N)cc3)nc(OC[C@@H]3CCCN(C)C3)n3ccnc23)cc1C#N [Example 96, 5-(7-(4-cyanophenyl)-5-{[(3R)-1-methylpiperidin-3-yl]methoxy}imidazo[1,2-c]pyrimidin-8-yl)-2-methylbenzonitrile] | ≤ 50 nM |
| CN(C)C(=O)N(C)Cc1ccc(-c2c(-c3ccc(C#N)cc3)nc(N3CCC(N(C)C)CC3)n3ccnc23)cc1F [Example 97, N-(4-{7-(4-cyanophenyl)-5-[4-(dimethylamino)piperidin-1-yl]imidazo[1,2-c]pyrimidin-8-yl}-2-fluorobenzyl)-N,N′,N′-trimethylurea] | ≤ 50 nM |
| CN(C)C1CCN(c2nc(-c3ccc(C#N)cc3)c(-c3ccc(CN4CCOCC4)c(F)c3)c3nccn23)CC1 [Example 98, 4-{5-[4-(dimethylamino)piperidin-1-yl]-8-[3-fluoro-4-(morpholin-4-ylmethyl)phenyl]imidazo[1,2-c]pyrimidin-7-yl}benzonitrile] | ≤ 50 nM |
| CCN1CCC[C@@H](COc2nc(-c3ccc(C#N)cc3)c(-c3ccc(C)c(CO)c3)c3nccn23)C1 [Example 99, 4-{5-{[(3R)-1-ethylpiperidin-3-yl]methoxy}-8-[3-(hydroxymethyl)-4-methylphenyl]imidazo[1,2-c]pyrimidin-7-yl}benzonitrile] | ≤ 50 nM |
| Cc1ccc(-c2c(-c3ccc(C#N)cc3)nc(N3CC[C@@H](N(C)C)C3)n3ccnc23)cc1CO [Example 100, 4-{5-[(3R)-3-(dimethylamino)pyrrolidin-1-yl]-8-[3-(hydroxymethyl)-4-methylphenyl]imidazo[1,2-c]pyrimidin-7-yl}benzonitrile] | ≤ 50 nM |
| CN1CCC[C@@H](COc2nc(-c3ccc(C#N)cc3)c(-c3ccc(CO)c(Cl)c3)c3nccn23)C1 [Example 101, 4-(8-[3-chloro-4-(hydroxymethyl)phenyl]-5-{[(3R)-1-methylpiperidin-3-yl]methoxy}imidazo[1,2-c]pyrimidin-7-yl)benzonitrile] | ≤ 50 nM |

| SMILES | IC50 |
| --- | --- |
| Cc1ccc(-c2c(-c3ccc(C#N)cc3)nc(N3CCC(N(C)C)CC3)n3ccnc23)cc1CO [Example 102, 4-{5-[4-(dimethylamino)piperidin-1-yl]-8-[3-(hydroxymethyl)-4-methylphenyl]imidazo[1,2-c]pyrimidin-7-yl}benzonitrile] | ≤ 50 nM |
| Cc1ncc(-c2c(-c3ccc(C#N)cc3)nc(N3CCC(N(C)C)CC3)n3ccnc23)cc1Cl [Example 103, 4-{8-(5-chloro-6-methylpyridin-3-yl)-5-[4-(dimethylamino)piperidin-1-yl]imidazo[1,2-c]pyrimidin-7-yl}benzonitrile] | ≤ 50 nM |
| COc1ncc(-c2c(-c3ccc(C#N)cc3)nc(N3CCC(N(C)C)CC3)n3ccnc23)cc1Cl [Example 104, 4-{8-(5-chloro-6-methoxypyridin-3-yl)-5-[4-(dimethylamino)piperidin-1-yl]imidazo[1,2-c]pyrimidin-7-yl}benzonitrile] | ≤ 50 nM |
| COc1ncc(-c2c(-c3ccc(C#N)cc3)nc(N3CCC(N(C)C)CC3)n3ccnc23)cc1C#N [Example 105, 5-{7-(4-cyanophenyl)-5-[4-(dimethylamino)piperidin-1-yl]imidazo[1,2-c]pyrimidin-8-yl}-2-methoxynicotinonitrile] | ≤ 50 nM |
| CCc1ccc(-c2c(-c3ccc(C#N)cc3)nc(OC[C@@H]3CCCN(C)C3)n3ccnc23)cn1 [Example 107, 4-(8-(6-ethylpyridin-3-yl)-5-{[(3R)-1-methylpiperidin-3-yl]methoxy}imidazo[1,2-c]pyrimidin-7-yl)benzonitrile] | 50 to 500 nM |
| CC(C)c1ccc(-c2c(-c3ccc(C#N)cc3)nc(OC[C@@H]3CCCN(C)C3)n3ccnc23)cn1 [Example 108, 4-(8-(6-isopropylpyridin-3-yl)-5-{[(3R)-1-methylpiperidin-3-yl]methoxy}imidazo[1,2-c]pyrimidin-7-yl)benzonitrile] | 50 to 500 nM |
| CCN1CCC[C@@H](COc2nc(-c3ccc(C#N)cc3)c(-c3cc(C)c(CO)c(F)c3)c3nccn23)C1 [Example 109, 4-{5-{[(3R)-1-ethylpiperidin-3-yl]methoxy}-8-[3-fluoro-4-(hydroxymethyl)-5-methylphenyl]imidazo[1,2-c]pyrimidin-7-yl}benzonitrile] | ≤ 50 nM |
| Cc1cc(-c2c(-c3ccc(C#N)cc3)nc(N3CC[C@@H](N(C)C)C3)n3ccnc23)cc(F)c1CO [Example 110, 4-{5-[(3R)-3-(dimethylamino)pyrrolidin-1-yl]-8-[3-fluoro-4-(hydroxymethyl)-5-methylphenyl]imidazo[1,2-c]pyrimidin-7-yl}benzonitrile] | ≤ 50 nM |
| Cc1ccc(-c2c(-c3ccc(C#N)cc3)nc(N3CCC(N(C)C)CC3)n3ccnc23)c(CO)c1 [Example 111, 4-{5-[4-(dimethylamino)piperidin-1-yl]-8-[2-(hydroxymethyl)-4-methylphenyl]imidazo[1,2-c]pyrimidin-7-yl}benzonitrile] | ≤ 50 nM |
| Cc1ccc(-c2c(-c3ccc(C#N)cc3)nc(N3CCC(N(C)C)CC3)n3ccnc23)cn1 [Example 112, 4-[5-[4-(dimethylamino)piperidin-1-yl]-8-(6-methylpyridin-3-yl)imidazo[1,2-c]pyrimidin-7-yl]benzonitrile] | 50 to 500 nM |
| Cc1ncc(-c2c(-c3ccc(C#N)cc3)nc(N3CCC(N(C)C)CC3)n3ccnc23)cc1F [Example 113, 4-[5-[4-(dimethylamino)piperidin-1-yl]-8-(5-fluoro-6-methylpyridin-3-yl)imidazo[1,2-c]pyrimidin-7-yl]benzonitrile] | ≤ 50 nM |
| CN(C)C1CCN(c2nc(-c3ccc(C#N)cc3)c(-c3ccc(N(C)S(C)(=O)=O)nc3)c3nccn23)CC1 [Example 115, N-(5-{7-(4-cyanophenyl)-5-[4-(dimethylamino)piperidin-1-yl]imidazo[1,2-c]pyrimidin-8-yl}pyridin-2-yl)-N-methylmethanesulfonamide] | ≤ 50 nM |
| CCOc1ccc(-c2c(-c3ccc(C#N)cc3)nc(N3CCC(N(C)C)CC3)n3ccnc23)cn1 [Example 117, 4-[5-[4-(dimethylamino)piperidin-1-yl]-8-(6-ethoxypyridin-3-yl)imidazo[1,2-c]pyrimidin-7-yl]benzonitrile] | ≤ 50 nM |
| CC(C)c1ccc(-c2c(-c3ccc(C#N)cc3)nc(N3CCC(N(C)C)CC3)n3ccnc23)cn1 [Example 118, 4-[5-[4-(dimethylamino)piperidin-1-yl]-8-(6-isopropylpyridin-3-yl)imidazo[1,2-c]pyrimidin-7-yl]benzonitrile] | 50 to 500 nM |
| CCN1CCC[C@@H](COc2nc(-c3ccc(C#N)cc3)c(-c3ccc(C)cc3CO)c3nccn23)C1 [Example 119, 4-{5-{[(3R)-1-ethylpiperidin-3-yl]methoxy}-8-[2-(hydroxymethyl)-4-methylphenyl]imidazo[1,2-c]pyrimidin-7-yl}benzonitrile] | 50 to 500 nM |
